Among the data in PubChem BioAssay AID588415 (Sanford-Burnham Center for Chemical Genomics, 2011) are IC50 values, retold here.

Activity calls are given as the source filed them.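 How the source made its calls: active means IC50 at or below 20 µM; inactive means the rest.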

The assay deals with glucose-6-phosphate dehydrogenase-6-phosphogluconolactonase (PfGluPho), Plasmodium falciparum 3D7. Description: PfG6PD enzyme inhibitors, SAR follow-up, biochemical, fluorescence intensity (AID 588415). To be noted: recombinant PfG6PD, resazurin-diaphorase NADPH fluorescence. On the technique in general: The colour change of resazurin is a common sign of viable cells or microbes.
On to `O=C(Nc1nnc(S(=O)(=O)N2CCCCCC2)s1)c1cccc(Cl)c1`, for which the IC50 (as a rule, the concentration needed to halve the response being measured) is 5.6 µM.
Next, `CCN1CCCC1CNC(=O)c1ccc2c(c1)N(Cc1ccccc1Cl)C(=O)c1ccccc1S2` (centres undefined): > 80 µM (inactive); `CCN1CCCC1CNC(=O)c1ccc2c(c1)N(Cc1ccc(C(F)(F)F)cc1)C(=O)c1ccccc1S2` (centres undefined): > 80 µM (inactive).
On to `O=C(Nc1nnc(S(=O)(=O)N2CCCCCC2)s1)c1ccc(F)cc1`, for which the IC50 entry was “inactive”.
With `CCN1CCCC1CNC(=O)c1ccc2c(c1)NC(=O)/C(=C\c1ccccc1F)S2` (centres undefined) the figure was 1.75 µM; with `CCN(CC)CCNC(=O)c1ccc2c(c1)N(Cc1ccc(C)cc1)C(=O)c1ccccc1S2`, “inactive”.
`CN(C)CCNC(=O)c1ccc2c(c1)NC(=O)/C(=C\c1cccc(Cl)c1)S2`: the IC50 entry is “inactive”.
For the compound `CCN(CC)CCNC(=O)c1ccc2c(c1)NC(=O)/C(=C\c1ccccc1F)S2`, the IC50 is 7.36 µM.
Next, `CCN(CC)CCNC(=O)c1ccc2c(c1)N(Cc1ccccc1Cl)C(=O)c1ccccc1S2`: > 80 µM (inactive); `COc1ccc(C(=O)Nc2nnc(S(=O)(=O)N3CCCCCC3)s2)cc1OC`: > 80 µM (inactive).
Next, `Cc1cccc(C(=O)Nc2nnc(S(=O)(=O)N3CCCc4ccccc43)s2)c1`: > 80 µM (inactive); `O=C1Nc2cc(C(=O)NCCN3CCCCCC3)ccc2S/C1=C/c1ccccc1Cl`: “inactive”.
With `O=C(Nc1nnc(S(=O)(=O)N2CCCCCC2)s1)c1cccc(F)c1` the figure was > 80 µM (inactive); with `O=C1Nc2cc(C(=O)NCCN3CCCC3)ccc2S/C1=C/c1ccccc1Cl`, 11.1 µM.
With `Cc1ccccc1C(=O)Nc1nnc(S(=O)(=O)N2CCCc3ccccc32)s1`, the IC50 was > 80 µM (inactive).
Next, `O=C(Nc1nnc(S(=O)(=O)N2CCCCCC2)s1)C1CCCCC1`: > 80 µM (inactive).
With `CC1Cc2ccccc2N1S(=O)(=O)c1nnc(NC(=O)c2cccc(Br)c2)s1` (centres undefined), the IC50 is > 80 µM (inactive).
As for `CCCN(CCC)CCNC(=O)c1ccc2c(c1)NC(=O)/C(=C/c1ccccc1)S2`, the IC50 is > 80 µM (inactive).
Regarding `O=C1Nc2cc(C(=O)NCCN3CCCCCC3)ccc2S/C1=C/c1ccccc1F`, the IC50 result is “inactive”.
Next, `CCN1CCCC1CNC(=O)c1ccc2c(c1)NC(=O)/C(=C/c1ccccc1F)S2` (centres undefined): 1.73 µM; `CCOc1ccc(C(=O)Nc2nnc(S(=O)(=O)N3CCCCCC3)s2)cc1`: > 80 µM (inactive).
With `COc1ccc(C(=O)Nc2nnc(S(=O)(=O)N3CCCCCC3)s2)cc1` the entry was “inactive”; with `Cc1cccc(C(=O)Nc2nnc(S(=O)(=O)N3CCOCC3)s2)c1`, 4.17 µM; with `Cc1cccc(C(=O)Nc2nnc(S(=O)(=O)N3CCCCCC3)s2)c1`, 8.71 µM.
Turning to `O=C(Nc1nnc(S(=O)(=O)N2CCOCC2)s1)c1cccc(F)c1`, the IC50 result is “inactive”.
For the compound `COc1cccc(/C=C2/Sc3ccc(C(=O)NCCN4CCCCCC4)cc3NC2=O)c1`, the IC50 is > 80 µM (inactive).
With `CCN(CCNC(=O)c1ccc2c(c1)NC(=O)c1ccccc1S2)c1ccccc1` the figure was > 80 µM (inactive).
Take `COc1cccc(C(=O)Nc2nnc(S(=O)(=O)N3CCCCCC3)s2)c1`: the half-inhibitory concentration (IC50) is 4.89 µM.
With `COc1ccc(/C=C2/Sc3ccc(C(=O)NCCN(C)C)cc3NC2=O)cc1` the figure was > 80 µM (inactive); with `Cc1ccc(C(=O)Nc2nnc(S(=O)(=O)N3CCCCCC3)s2)cc1`, > 80 µM (inactive); with `CCN(CC)CCNC(=O)c1ccc2c(c1)NC(=O)/C(=C\c1ccccc1Cl)S2`, 16.2 µM.
With `COc1ccc(/C=C2/Sc3ccc(C(=O)NCCN4CCCC4)cc3NC2=O)cc1` the entry was “inactive”; with `Cc1ccccc1C(=O)Nc1nnc(S(=O)(=O)N2CCCCCC2)s1`, > 80 µM (inactive).
As for `CCN(CC)CCNC(=O)c1ccc2c(c1)N(Cc1cc(C)ccc1C)C(=O)c1ccccc1S2`, the IC50 was > 80 µM (inactive).
`CCC(C)N(CCNC(=O)c1ccc2c(c1)NC(=O)c1ccccc1S2)C1CCCCC1` (centres undefined): the concentration for half-maximal inhibition (IC50) was 6.36 µM.
With `O=C(Nc1nnc(S(=O)(=O)N2CCCCCC2)s1)c1ccccc1` the entry was “inactive”.
Next, `CCN(CC)CCNC(=O)c1ccc2c(c1)NC(=O)c1ccccc1S2`: “inactive”.
On to `CN(CCNC(=O)c1ccc2c(c1)NC(=O)c1ccccc1S2)C1CCCCC1`, for which the IC50 result is “inactive”.
Take `CCN1CCCC1CNC(=O)c1ccc2c(c1)NC(=O)/C(=C\c1ccccc1Cl)S2` (centres undefined): the IC50 is 2.56 µM.
As for `COc1cccc(/C=C2/Sc3ccc(C(=O)NCCN4CCCC4)cc3NC2=O)c1`, the IC50 result was “inactive”.
Next, `CCN(CCNC(=O)c1ccc2c(c1)N(Cc1cc(C)ccc1C)C(=O)c1ccccc1S2)c1ccccc1`: > 80 µM (inactive).
With `O=C(Nc1nnc(S(=O)(=O)N2CCCCCC2)s1)c1ccccc1F` the figure was > 80 µM (inactive); with `O=C(Nc1nnc(S(=O)(=O)N2CCCc3ccccc32)s1)c1cccc(F)c1`, > 80 µM (inactive).
As for `COc1ccccc1C(=O)Nc1nnc(S(=O)(=O)N2CCCCCC2)s1`, the IC50 is > 80 µM (inactive).
Next, `Cc1cccc(/C=C2/Sc3ccc(C(=O)NCCN4CCCC4)cc3NC2=O)c1`: 11.8 µM; `CCN1CCCC1CNC(=O)c1ccc2c(c1)N(Cc1ccccc1F)C(=O)c1ccccc1S2` (centres undefined): > 80 µM (inactive); `O=C(Nc1nnc(S(=O)(=O)N2CCCCCC2)s1)c1cccc(Br)c1`: 7.35 µM.
With `CCN(CCNC(=O)c1ccc2c(c1)N(CC)C(=O)c1ccccc1S2)c1ccccc1` the figure was > 80 µM (inactive); with `CCN1CCCC1CNC(=O)c1ccc2c(c1)NC(=O)c1ccccc1S2` (centres undefined), 12.2 µM.
Take `O=C(Nc1nnc(S(=O)(=O)N2CCCCCC2)s1)c1ccco1`: the IC50 is > 80 µM (inactive).
With `Cc1cccc(C(=O)Nc2nnc(S(=O)(=O)N3c4ccccc4CC3C)s2)c1` (centres undefined) the figure was > 80 µM (inactive).
With `Cc1cccc(C(=O)Nc2nnc(S(=O)(=O)N3CCC(C)CC3)s2)c1` the figure was 13 µM.
Next, `COc1ccc(/C=C2/Sc3ccc(C(=O)NCCN4CCCCCC4)cc3NC2=O)cc1`: > 80 µM (inactive).
On to `CC1Cc2ccccc2N1S(=O)(=O)c1nnc(NC(=O)c2cccc(F)c2)s1` (centres undefined), for which the IC50 was > 80 µM (inactive).
With `Cc1cccc(N2CCN(CCNC(=O)c3ccc4c(c3)NC(=O)c3ccccc3S4)CC2)c1C` the figure was > 80 µM (inactive).
Next, `Cc1ccc(C(=O)Nc2nnc(S(=O)(=O)N3c4ccccc4CC3C)s2)cc1` (centres undefined): > 80 µM (inactive); `CCCN(CCC)CCNC(=O)c1ccc2c(c1)NC(=O)/C(=C\c1ccc(C)cc1)S2`: > 80 µM (inactive); `CCN(CC)CCNC(=O)c1ccc2c(c1)NC(=O)/C(=C/c1ccccc1)S2`: 8.81 µM.
As for `Cc1ccc(C(=O)Nc2nnc(S(=O)(=O)N3CCCc4ccccc43)s2)cc1`, the IC50 was > 80 µM (inactive).
Next, `O=C(Nc1nnc(S(=O)(=O)N2CCCCC2)s1)c1cccc(F)c1`: > 80 µM (inactive).
Next, `Cc1ccc(CN2C(=O)c3ccccc3Sc3ccc(C(=O)NCCN(C)C)cc32)cc1`: “inactive”; `CCN(CC)CCNC(=O)c1ccc2c(c1)NC(=O)/C(=C\c1ccc(OC)cc1)S2`: “inactive”; `CCN(CC)CCNC(=O)c1ccc2c(c1)NC(=O)/C(=C\c1ccc(OC)c(OC)c1)S2`: “inactive”.
With `CCN1CCCC1CNC(=O)c1ccc2c(c1)N(Cc1cccc(F)c1)C(=O)c1ccccc1S2` (centres undefined) the figure was > 80 µM (inactive).
